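Where inhibition never reached the appropriate level, the endpoint shown equals the highest concentration tested. Otherwise, values were interpolated linearly from a five-concentration, 48-hour dose response in 96-well plates. Here, GI50 denotes the concentration required for 50% inhibition of growth. TGI is the concentration that stops growth completely.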
How the values were obtained:
Experiment in all cases: inhibition of tumour cell growth, NCI panel, 48 h
[1] = system: NCI/ADR-RES ovarian
[2] = system: K-562 leukemia
[3] = system: ACHN renal
[4] = system: NCI-H522 lung
[5] = system: KM12 colon
[6] = system: SK-MEL-5 melanoma
[7] = system: CAKI-1 renal
[8] = system: HL-60(TB) leukemia
[9] = system: LOX IMVI melanoma
[10] = system: OVCAR-8 ovarian
[11] = system: EKVX NSCLC
[12] = system: HT29 colon
[13] = system: UACC-257 melanoma
[14] = system: OVCAR-3 ovarian
[15] = system: A498 renal
[16] = system: COLO 205 colon
[17] = system: MCF7 breast
[18] = system: OVCAR-5 ovarian
[19] = system: MALME-3M melanoma
[20] = system: A549 NSCLC
[21] = system: OVCAR-4 ovarian
[22] = system: HCC-2998 colon
[23] = system: UACC-62 melanoma
[24] = system: T-47D breast
[25] = system: U251 CNS
[26] = system: HOP-92 NSCLC
[27] = system: SNB-75 CNS
[28] = system: HCT-116 colon
[29] = system: MDA-MB-435
[30] = system: NCI-H23 lung
[31] = system: SK-OV-3 ovarian
[32] = system: DU-145 prostate
[33] = system: SF-268 CNS
[34] = system: NCI-H226 lung
[35] = system: HCT-15 colon
[36] = system: M14 melanoma
[37] = system: MOLT-4 leukemia
[38] = system: RXF 393 renal
[39] = system: HS 578T breast
[40] = system: SK-MEL-2 melanoma
[41] = system: IGROV1 ovarian
[42] = system: TK-10 renal
[43] = system: MDA-MB-231 breast
[44] = system: SF-295 CNS
[45] = system: BT-549 breast
[46] = system: UO-31 renal
[47] = system: SN12C renal
[48] = system: SF-539 CNS
[49] = system: HOP-62 NSCLC
[50] = system: SK-MEL-28 melanoma
[51] = system: SR leukemia
[52] = system: 786-0 renal
[53] = system: CCRF-CEM leukemia
[54] = system: SNB-19 CNS
[55] = system: PC-3 prostate
[56] = system: RPMI-8226 leukemia
[57] = system: NCI-H460 lung
[58] = system: SW-620 colon

**Q.** Which results are given for `COc1cnc2c(c1)C(=O)c1c-2n(CCCNCC2CC2)c(=O)c2cc(F)ccc12`?
**A.** GI50 [1]: 609 nM; TGI [1]: 3.52 µM; GI50 [2]: 229 nM; TGI [2]: 14.5 µM; GI50 [3]: 191 nM; TGI [3]: 717 nM; GI50 [4]: 275 nM; TGI [4]: 1740 nM; GI50 [5]: 1400 nM; TGI [5]: 5.73 µM; GI50 [6]: 1140 nM; TGI [6]: 2650 nM; GI50 [7]: 216 nM; TGI [7]: 1830 nM; GI50 [8]: 199 nM; TGI [8]: 1680 nM; GI50 [9]: 206 nM; TGI [9]: 923 nM; GI50 [10]: 801 nM; TGI [10]: 3.83 µM; GI50 [11]: 1510 nM; TGI [11]: 5.64 µM; GI50 [12]: 495 nM; TGI [12]: 2100 nM; GI50 [13]: 1780 nM; TGI [13]: 5.24 µM; GI50 [14]: 1110 nM; TGI [14]: 3.8 µM; GI50 [15]: 969 nM; TGI [15]: 4.11 µM; GI50 [16]: 570 nM; TGI [16]: 3.48 µM; GI50 [17]: 76.6 nM; TGI [17]: 1350 nM; GI50 [18]: 1020 nM; TGI [18]: 3.07 µM; GI50 [19]: 1030 nM; TGI [19]: 3.15 µM; GI50 [20]: 262 nM; TGI [20]: 1550 nM; GI50 [21]: 1590 nM; TGI [21]: 3.67 µM; GI50 [22]: 715 nM; TGI [22]: 2580 nM; GI50 [23]: 561 nM; TGI [23]: 2260 nM; GI50 [24]: 488 nM; TGI [24]: 3.1 µM; GI50 [25]: 346 nM; TGI [25]: 2360 nM; GI50 [26]: 1750 nM; TGI [26]: 7.36 µM; GI50 [27]: 480 nM; TGI [27]: 3.3 µM; GI50 [28]: 284 nM; TGI [28]: 1400 nM; GI50 [29]: 1210 nM; TGI [29]: 3.98 µM; GI50 [30]: 577 nM; TGI [30]: 1950 nM; GI50 [31]: 939 nM; TGI [31]: 2580 nM; GI50 [32]: 475 nM; TGI [32]: 2440 nM; GI50 [33]: 1060 nM; TGI [33]: 8 µM; GI50 [34]: 751 nM; TGI [34]: 2020 nM; GI50 [35]: 402 nM; TGI [35]: 1810 nM; GI50 [36]: 736 nM; TGI [36]: 3.08 µM; GI50 [37]: 77.1 nM; TGI [37]: 8.9 µM; GI50 [38]: 855 nM; TGI [38]: 2590 nM; GI50 [39]: 2490 nM; TGI [39]: 13.9 µM; GI50 [40]: 3.68 µM; TGI [40]: 8.4 µM; GI50 [41]: 641 nM; TGI [41]: 4.33 µM; GI50 [42]: 1560 nM; TGI [42]: 4.66 µM; GI50 [43]: 943 nM; TGI [43]: 3.44 µM; GI50 [44]: 295 nM; TGI [44]: 1680 nM; GI50 [45]: 1110 nM; TGI [45]: 3.88 µM; GI50 [46]: 304 nM; TGI [46]: 1590 nM; GI50 [47]: 297 nM; TGI [47]: 2690 nM; GI50 [48]: 581 nM; TGI [48]: 1920 nM; GI50 [49]: 380 nM; TGI [49]: 2150 nM; GI50 [50]: 1820 nM; TGI [50]: 4.57 µM; GI50 [51]: 117 nM; TGI [51]: 1790 nM; GI50 [52]: 386 nM; TGI [52]: 1380 nM; GI50 [53]: 190 nM; TGI [53]: 4.61 µM; GI50 [54]: 453 nM; TGI [54]: 3.89 µM; GI50 [55]: 760 nM; TGI [55]: 4.93 µM; GI50 [56]: 474 nM; TGI [56]: 2870 nM; GI50 [57]: 104 nM; TGI [57]: 800 nM; GI50 [58]: 227 nM; TGI [58]: 1860 nM
